Measured values taken from PMC12036875, “Mitochondria-targeting natural product rhein conjugated with dichloroacetate as the dual inhibitor of glycolysis and oxidative phosphorylation to off energize cancer cells and induce ROS storm” (Theranostics, 2025).
Read-outs that look alike come from different tables or passages of the source.

Legend:
PDK1 = molecular target: T1, PDK1 (Homo sapiens, UniProt O15530); experiment: PDK1 kinase activity assay (ADP-Glo); assay type: biochemical; conditions: 0.08, 0.4, 2 μM; 30 min pre-incubation; effect of Rhein-DCA at 2 μM
T1 construct: purchased Promega Biotech Co., Ltd (USA)
T1 sequence (O15530 1-556): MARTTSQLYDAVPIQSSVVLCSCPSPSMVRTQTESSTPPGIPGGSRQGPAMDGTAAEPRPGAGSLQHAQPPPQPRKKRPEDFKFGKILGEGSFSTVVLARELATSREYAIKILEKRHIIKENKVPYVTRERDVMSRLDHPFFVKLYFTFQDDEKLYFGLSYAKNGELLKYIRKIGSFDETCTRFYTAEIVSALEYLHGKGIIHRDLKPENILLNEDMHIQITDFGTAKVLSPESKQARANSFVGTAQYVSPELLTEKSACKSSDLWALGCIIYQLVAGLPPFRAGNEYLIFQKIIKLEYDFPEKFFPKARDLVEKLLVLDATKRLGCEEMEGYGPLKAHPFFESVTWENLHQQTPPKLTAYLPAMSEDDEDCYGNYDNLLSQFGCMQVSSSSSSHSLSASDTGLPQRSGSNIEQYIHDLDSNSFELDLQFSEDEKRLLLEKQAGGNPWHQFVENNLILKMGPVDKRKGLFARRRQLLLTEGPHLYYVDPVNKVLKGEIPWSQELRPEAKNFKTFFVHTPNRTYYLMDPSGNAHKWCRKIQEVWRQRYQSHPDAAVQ
Experimental: The elevated glycolytic metabolism in cancer cells would be blocked when the activity of the gate enzyme PDH was resumed through inhibiting overexpression of PDK1, followed by a decrease in lactate and energy production (Figure 2A). ADP-Glo^TM Kinase assay was initially employed to investigate the potential of Rhein-DCA conjugate to suppress PDK1 activity in vitro. PDK1 were separately incubated with rhein, DCA, and Rhein-DCA conjugate for 30 min for better binding, then the enzymatic substrate was added to the mixture to initiate the reaction. Finally, the luminescent signal representing PDK1 activity was recorded once the detection procedures were completed. More detailed experimental information was presented in the supporting information.
The inhibitory effect of PDK1 kinase was evaluated with the […] kinase assay. Firstly, PDK1 enzyme, PDK tide, ATP, and indicated drugs (dissolved in DMSO) were dissolved in kinase buffer. Then, 5 μL of compounds (rhein, DCA and Rhein-DCA) with diverse concentrations and 10 μL of PDK1 enzyme were dispensed to the 96-well plate and incubated for 30 min at room temperature. Next, 10 μL of PDK tide/ATP mixture was added and incubated at room temperature for 60 min. Finally, to halt the reaction and deplete the remaining ATP, 25 μL of ADP-Glo™ reagent was added to each well and incubated at room temperature for 40 min. 50 μL of kinase detection reagent was added and incubated at room temperature for another 30 min. Ultimately, the luminescence signal was recorded by multi-mode microplate reader (Integration time: 1 s). The concentrations of reagents employed in this assay were as follows: […]

293T cells = experiment: MTT cytotoxicity assay, normal cells; assay type: cell-based; conditions: Homo sapiens, HEK-293T, read-out: IC50 293T
Experimental: The cytotoxicity of Rhein-DCA conjugate was performed on various cancer cell lines, including breast cancer (4T1 and MCF-7), cervical cancer (HeLa), and colorectal carcinoma (CT26) via 3-(4,5)-dimethylthiahiazo(-z-y1)-3,5-di-phenytetrazoliumromide (MTT) assay. […] Moreover, the cytotoxicity of these compounds (rhein, DCA, R + D and Rhein-DCA) for normal cells (293T) was lower than that of those tested cancer cells.
Mouse breast cancer 4T1 cells and Mouse colorectal carcinoma CT26 cells were purchased from Haixing Biosciences Co., Ltd (Jiangsu, P. R. China), and cultured in complete RPMI-1640 medium supplemented with 10% FBS and 1% Penicillin / Streptomycin in a cell incubator (37 °C in 95% air and 5% CO2 atmosphere). Human breast cancer MCF-7 cells, Human cervical carcinoma HeLa cells and Human embryonic kidney 293T cells were obtained from the China Center for Type Culture Collection (CCTCC). MCF-7 and HeLa cells were cultured in DMEM medium containing 10% FBS and 1% Penicillin / Streptomycin and then cultured in a cell incubator (37 °C in 95% air and 5% CO2 atmosphere).
The cytotoxicity of rhein, DCA, the mixture of rhein and DCA (R + D) and Rhein-DCA conjugate was evaluated on HeLa, MCF-7, CT26, 4T1 and 293T cell lines by MTT assay. Cells were seeded in 96-well plates at a density of 3 × 10^3 cells per well in the corresponding complete culture medium and cultured for 24 h. Then cells were incubated with 200 μL fresh medium containing the respective desired concentrations of rhein, DCA, R + D (with the concentrations being 100, 66.7, 44.4, 29.6, 19.8, 13.2, 8.8, 5.9, 3.9, 2.6, 1.7 and 1.2 μM, respectively) and Rhein-DCA conjugate (with the concentrations being 29.6, 19.8, 13.2, 8.8, 5.9, 3.9, 2.6, 1.7, 1.2, 0.8, 0.5 and 0.3 μM, respectively). After 72 h of incubation, 20 μL of MTT solution (5 mg/mL) was added to each well and the plates were cultured for another 4 h. The medium was carefully removed, and 110 μL of DMSO was added into per well to dissolve the formazan. The absorption densities at 590 nm were recorded with microplate reader. […]

4T1 tumor tissue = experiment: Lactate detection in tumor tissue (ELISA); assay type: in vivo, Balb/c mice; conditions: 20 mg/kg oral, 24 days
Excerpt: The TAMs are the prominent components in the TEM and play a critical role in tumoral immunosuppression. Repolarization of protumor M2 phenotype into antitumor M1 phenotype is promising for malignant tumors. On the one hand, as a key metabolite fueling M2 polarization, lactate is very important in modulating the polarization state of macrophages within the tumor microenvironment. To verify that Rhein-DCA conjugate reprogrammed the metabolism of cells on solid tumors, we analyzed the expression of pPDHA1-Ser^293 protein in tumor tissues with immunohistochemical staining (IHC) (Figure 7A). […] The end product lactate of glycolysis decreased 20%, consistent with DCA's ability to reverse the Warburg effect. […] On the other hand, the ICD behavior of cancer cells also can activate TAMs into M1 polarization. Then, the release of HMGB1 was evaluated to assess the ICD effect in vivo with immunofluorescence staining (IF) (Figure 7C).
Tumor tissues were collected and homogenized in ice-cold PBS (1:10, w/v). The tissue was disrupted using sonication in ice bath (power 400 W, the duration of sonication is 3 s, the interval duration of 3 s, total sonication time of 20 min). The homogenate was centrifuged at 5000 G for 10 min at 4 °C to obtain the supernatant. The lactate content was analyzed with a lactate ELISA kit according to the manufacturer's protocol. The results were normalized to the weight of the tumor and reported as µmol lactate/g tissue.

[1] = 72 h treatment, MTT, normal cells, mean ± S.D., n = 3

## O=C(O)c1cc(O)c2c(c1)C(=O)c1cccc(O)c1C2=O [Rhein, 4,5-dihydroxyanthraquinone-2-carboxylic acid]
PDK1
  PDK1 activity (luminescent signal): almost negligible
293T cells; [1]
  IC50: 126 ± 13.6 µM
4T1 tumor tissue
  tumor lactate level, in words: reduced tumor lactate levels

## O=C(OCCOC(=O)C(Cl)Cl)c1cc(O)c2c(c1)C(=O)c1cccc(O)c1C2=O [Rhein-DCA]
PDK1
  PDK1 activity (luminescent signal): dramatically decreased
293T cells; [1]
  IC50: 11.7 µM
4T1 tumor tissue
  tumor lactate level as percentage of the vehicle group: 44%

## O=C(O)C(Cl)Cl [DCA, Dichloroacetate]
PDK1
  PDK1 activity (luminescent signal): did not exhibit obvious differences
293T cells; 72 h
  IC50: > 100 µM
4T1 tumor tissue; vs vehicle
  decrease of tumor lactate: 20%
